Measured values: ChEMBL document CHEMBL1140598, “A review of anti-infective and anti-inflammatory chalcones” (Eur J Med Chem, 2007)
Values after ≈ are worked out from the molar mass of the structure shown.

Experiments:
[1] = test system: Colletotrichum truncatum; test: Antifungal activity against Colletotrichum truncatum CE175; format: functional, Glomerella truncata
[2] = test system: Diaporthe longicolla; test: Antifungal activity against Phomopsis longicolla Hobbs CE117; format: functional
[3] = test system: Mycobacterium tuberculosis; test: Antibacterial activity against Mycobacterium tuberculosis H37Rv at 12.5 ug/mL; format: functional
[4] = test system: Plasmodium falciparum; test: Antimalarial activity against Plasmodium falciparum; format: functional, organism-based
[5] = test system: Leishmania major; test: Growth inhibition of Leishmania major promastigotes assessed as [3H]thymidine incorporation; format: functional, organism-based
[6] = test system: Leishmania donovani; test: Inhibition of Leishmania donovani amastigotes in human monocyte-derived macrophages; format: functional, organism-based
[7] = test system: RAW; test: Inhibition of nitric oxide production in LPS-stimulated mouse RAW 264.7 cells; format: functional, cell-based
[8] = test system: Trichophyton rubrum; test: Antifungal activity against Trichophyton rubrum; format: functional
[9] = test system: Plasmodium falciparum; test: Antimalarial activity against chloroquine-resistant Plasmodium falciparum K1 by [3H]hypoxanthine incorporation; format: functional, organism-based
[10] = test system: Human immunodeficiency virus; test: Antiviral activity against HIV; format: functional, organism-based; settings: Human immunodeficiency virus 1
[11] = test system: Leishmania donovani; test: Antileishmanial activity against Leishmania donovani promastigotes at 50 ug/mL; format: functional
[12] = test system: Leishmania donovani; test: Antileishmanial activity against Leishmania donovani amastigotes in mouse macrophages at 50 ug/mL; format: functional
[13] = test system: Staphylococcus aureus; test: Antibacterial activity against Staphylococcus aureus; format: functional, organism-based
[14] = test system: Staphylococcus aureus; test: Antibacterial activity against methicillin-resistant Staphylococcus aureus; format: functional, organism-based
[15] = test system: Plasmodium falciparum; test: Antiplasmodial activity against chloroquine-sensitive Plasmodium falciparum D6; format: functional, organism-based
[16] = test system: Plasmodium falciparum; test: Antiplasmodial activity against chloroquine-resistant Plasmodium falciparum W2; format: functional, organism-based
[17] = test system: Neutrophil; test: Superoxide radical scavenging activity in stimulated human neutrophils; format: functional, cell-based
[18] = Superoxide radical scavenging activity by hypoxanthine / xanthine oxidase system; format: functional
[19] = biological target: Protease (Human immunodeficiency virus 1) (UniProt Q9YQ12); test: Inhibition of HIV1 protease at 50 ug/mL
Sequence of Protease (Human immunodeficiency virus 1) (Q9YQ12 as listed by the source): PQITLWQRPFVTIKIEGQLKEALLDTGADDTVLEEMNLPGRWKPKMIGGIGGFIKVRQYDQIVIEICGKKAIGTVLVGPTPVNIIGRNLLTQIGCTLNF

[20] = biological target: Protease (Human immunodeficiency virus 1, UniProt Q9YQ12); test: Inhibition of HIV1 protease
Sequence of Protease (Q9YQ12 whole entry): as the sequence (Q9YQ12 as listed by the source) above

[21] = test system: Plasmodium falciparum; test: Antiplasmodial activity against chloroquine-sensitive Plasmodium falciparum poW by [3H]hypoxanthine incorporation; format: functional, organism-based
[22] = test system: Plasmodium falciparum; test: Antiplasmodial activity against multiresistant Plasmodium falciparum Dd2 by [3H]hypoxanthine incorporation; format: functional, organism-based
[23] = test system: Human immunodeficiency virus 1; test: Inhibition of HIV1 p24 antigen production in human C8166 lymphocytes; format: functional, organism-based; settings: Human immunodeficiency virus 1, C8166
[24] = test system: Human immunodeficiency virus 1; test: Inhibition of HIV1 reverse transcriptase production in human C8166 lymphocytes; format: functional, organism-based; settings: Human immunodeficiency virus 1, C8166
[25] = test system: Human immunodeficiency virus 1; test: Antiviral activity against HIV1 3B assessed as inhibition of p24 antigen production in human PBMCs; format: functional, organism-based; settings: Human immunodeficiency virus 1, 3B
[26] = test system: Leishmania braziliensis; test: Growth inhibition of Leishmania braziliensis promastigotes; format: functional, organism-based
[27] = test system: Plasmodium falciparum; test: Inhibition of ring to schizont stage maturation in Plasmodium falciparum NF54 at 2 ug/mL; format: functional

COc1c(O)ccc(C(=O)/C=C/c2ccccc2)c1O [LARREIN]
MIC [1]: 6.25 µg/mL (≈ 23.1 µM)
MIC [2]: 6.25 µg/mL (≈ 23.1 µM)

O=C(/C=C/c1cccc(I)c1)c1ccccc1O
inhibition at 12.5 µg/mL [3]: 90%

O=C(Nc1ccc(Cl)cc1)Nc1ccc(C(=O)/C=C/c2ccc(F)cc2F)cc1
IC50 [4]: 1.76 µM

COc1ccc(/C=C/C(=O)c2ccccc2)c(OC)c1
IC50 [5]: 4 µM
IC50 [6]: 0.65 µM

COc1cc(/C=C/C(=O)c2ccc(NC(=O)Nc3ccc(Cl)cc3)cc2)cc(OC)c1OC
IC50 [4]: 1.76 µM

COc1ccc(OC)c(C(=O)/C=C/c2ccc(N(C)C)cc2)c1
IC50 [7]: 0.7 µM

COc1cc(O)c(C(=O)/C=C/c2ccccc2Cl)c(OC)c1
MIC [8]: 12.5 µg/mL (≈ 39.2 µM)

COc1ccc(/C=C/C(=O)c2ccc(OC)cc2OC)c(OC)c1
IC50 [9]: 6.5 µM

COc1ccc(/C=C/C(=O)c2ccccc2O)c(OC)c1
IC50 [5]: 4 µM
IC50 [6]: 0.65 µM

O=C(/C=C/c1ccccc1)c1ccc(Cl)cc1O
inhibition at 12.5 µg/mL [3]: 89%

COc1c(C)c(O)c(C(=O)/C=C(\O)c2ccccc2)c(O)c1C=O
EC50 [10]: 0.022 µg/mL (≈ 0.067 µM)

COc1ccc(/C=C/C(=O)c2ccc(O)cc2)c(OC)c1
IC50 [5]: 4 µM
IC50 [6]: 0.65 µM

CC1(C)C=Cc2c(ccc(C(=O)/C=C/c3ccc(O)cc3)c2O)O1
Activity [11]: 84%
Activity [12]: 74%

COc1cc(O)c(C(=O)CCc2ccc(O)cc2)c(O)c1 [ASEBOGENIN]
IC50 [13]: 10 µg/mL (≈ 34.7 µM)
IC50 [14]: 4.5 µg/mL (≈ 15.6 µM)

COc1cc(/C=C/C(=O)c2ccc(O)cc2O)ccc1O [HOMOBUTEIN]
IC50 [15]: 10.3 µM
IC50 [16]: 10.3 µM

COc1ccc(C(=O)/C=C/c2ccc(F)cc2F)c(OC)c1
IC50 [9]: 6.5 µM

COc1ccc(C(=O)/C=C/c2ccc(N(C)C)cc2)cc1OC
IC50 [17]: 0.1 µM
IC50 [18]: 0.3 µM

COc1cc(O)cc(O)c1C(=O)/C=C/c1ccccc1 [CARDAMOMIN]
inhibition [19]: 75.1%
IC50 [20]: 115 µM

O=C(CCc1ccc(O)cc1)c1c(O)cc(O)cc1O
inhibition [19]: 27%

COc1cc(O)c(CC=C(C)C)c(O)c1C(=O)/C=C/c1ccc(O)cc1 [XANTHOHUMOL]
IC50 [21]: 8.2 µM
IC50 [22]: 24 µM
EC50 [23]: 1.28 µg/mL (≈ 3.61 µM)
EC50 [24]: 0.5 µg/mL (≈ 1.41 µM)
EC50 [25]: 20.7 µg/mL (≈ 58.5 µM)

O=C(/C=C/c1ccccc1)c1ccc(O)cc1O [2',4'-DIHYDROXYCHALCONE]
MIC [1]: 6.25 µg/mL (≈ 26 µM)
MIC [2]: 6.25 µg/mL (≈ 26 µM)

COc1ccc(C(=O)/C=C/c2ccc(Cl)cc2Cl)c(OC)c1OC
IC50 [9]: 6.5 µM

O=C(/C=C/c1ccccc1)c1ccccc1 [CHALCONE]
IC50 [26]: 13.7 µM

O=C(/C=C/c1ccc(F)cc1F)c1ccc(O)cc1O
IC50 [9]: 20 µM

CC(C)=CCc1cc(C(=O)/C=C/c2ccc(O)cc2)c(O)c(CC=C(C)C)c1O [MEDICAGENIN]
inhibition at 2 µg/mL [27]: 100%
